{"source": "paper PMC10507043", "about": "“Metabolite interactions in the bacterial Calvin cycle and implications for flux regulation” (Communications Biology, 2023)", "assay_type_in_all_cases": "biochemical", "key": {"syn-TKT [1]": {"target": "T1, syn-TKT (Synechocystis sp. PCC 6803, UniProt P73282)", "T1 construct": "gene tktA; recombinant from genomic DNA, pET-28a(+), E. coli BL21, HisTrap purified", "T1 sequence (P73282 1-670)": "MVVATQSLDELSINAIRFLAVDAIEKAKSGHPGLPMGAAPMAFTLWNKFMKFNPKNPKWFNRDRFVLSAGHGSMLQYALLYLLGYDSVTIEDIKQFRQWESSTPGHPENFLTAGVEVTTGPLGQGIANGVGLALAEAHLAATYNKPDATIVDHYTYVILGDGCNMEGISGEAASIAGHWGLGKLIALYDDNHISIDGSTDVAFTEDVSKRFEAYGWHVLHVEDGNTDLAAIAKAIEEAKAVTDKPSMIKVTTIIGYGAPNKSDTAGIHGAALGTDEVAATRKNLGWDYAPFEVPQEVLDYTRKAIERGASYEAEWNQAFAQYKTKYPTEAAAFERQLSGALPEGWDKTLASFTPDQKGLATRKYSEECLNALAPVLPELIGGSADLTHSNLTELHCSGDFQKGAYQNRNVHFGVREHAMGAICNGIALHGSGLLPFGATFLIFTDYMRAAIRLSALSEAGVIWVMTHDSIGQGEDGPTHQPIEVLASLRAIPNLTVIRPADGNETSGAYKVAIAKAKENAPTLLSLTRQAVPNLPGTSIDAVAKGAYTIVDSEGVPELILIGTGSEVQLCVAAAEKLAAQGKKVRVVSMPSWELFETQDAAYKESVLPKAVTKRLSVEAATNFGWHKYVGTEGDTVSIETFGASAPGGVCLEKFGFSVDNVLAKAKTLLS", "assay": "alcohol dehydrogenase-coupled NADH assay, inhibition", "conditions": "1 mM AMP, glycylglycine pH 7.5, thiamine pyrophosphate, Mg2+"}, "syn-TKT [2]": {"target": "T1, syn-TKT", "assay": "alcohol dehydrogenase-coupled NADH consumption at […] nm", "conditions": "100 mM L-erythrulose, 2 mM thiamine pyrophosphate, 5 mM MgCl2, 100 mM glycylglycine pH 7.5; no added metabolite"}, "cn-TKT [3]": {"target": "T2, cn-TKT (Cupriavidus necator, UniProt P21726)", "T2 construct": "gene cbbTP; recombinant from genomic DNA, pET-28a(+), E. coli BL21, HisTrap purified", "T2 sequence (P21726 1-670)": "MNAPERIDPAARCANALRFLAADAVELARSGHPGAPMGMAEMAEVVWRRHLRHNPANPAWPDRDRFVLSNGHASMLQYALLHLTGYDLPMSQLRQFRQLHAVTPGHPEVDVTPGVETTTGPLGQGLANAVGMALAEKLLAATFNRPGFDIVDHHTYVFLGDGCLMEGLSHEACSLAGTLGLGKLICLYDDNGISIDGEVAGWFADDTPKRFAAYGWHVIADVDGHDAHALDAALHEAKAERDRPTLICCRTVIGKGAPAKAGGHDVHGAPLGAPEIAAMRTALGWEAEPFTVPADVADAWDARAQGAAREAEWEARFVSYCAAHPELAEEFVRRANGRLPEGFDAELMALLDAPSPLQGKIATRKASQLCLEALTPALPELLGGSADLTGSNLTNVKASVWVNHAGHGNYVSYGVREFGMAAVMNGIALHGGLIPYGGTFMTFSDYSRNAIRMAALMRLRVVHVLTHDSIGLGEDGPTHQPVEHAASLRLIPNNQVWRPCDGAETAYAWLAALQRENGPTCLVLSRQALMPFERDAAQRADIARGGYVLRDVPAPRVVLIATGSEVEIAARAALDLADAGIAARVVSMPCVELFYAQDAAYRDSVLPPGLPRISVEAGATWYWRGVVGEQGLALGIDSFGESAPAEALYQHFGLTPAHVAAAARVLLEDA", "assay": "alcohol dehydrogenase-coupled NADH consumption at […] nm", "conditions": "100 mM L-erythrulose, 2 mM thiamine pyrophosphate, 5 mM MgCl2, 100 mM glycylglycine pH 7.5; no added metabolite"}, "syn-F/SBPase [4]": {"target": "T3, syn-F/SBPase (Synechocystis sp. PCC 6803, UniProt P73922, R194H)", "T3 construct": "gene slr2094; recombinant, codon-optimised, pET-28a(+), E. coli BL21, HisTrap purified; homotetramer", "T3 sequence (P73922 whole entry R194H)": "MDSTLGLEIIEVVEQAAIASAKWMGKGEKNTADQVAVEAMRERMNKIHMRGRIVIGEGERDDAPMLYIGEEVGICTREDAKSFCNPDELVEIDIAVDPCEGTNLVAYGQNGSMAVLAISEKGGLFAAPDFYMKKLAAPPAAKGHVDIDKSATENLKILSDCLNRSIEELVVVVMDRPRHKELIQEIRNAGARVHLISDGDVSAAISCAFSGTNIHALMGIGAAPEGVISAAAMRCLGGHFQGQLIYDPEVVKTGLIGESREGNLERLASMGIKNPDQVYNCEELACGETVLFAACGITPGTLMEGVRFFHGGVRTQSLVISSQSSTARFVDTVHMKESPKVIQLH", "assay": "Malachite Green phosphate release, activation", "conditions": "substrate fructose-1,6-bisphosphate; AMP-insensitive variant"}, "syn-F/SBPase [5]": {"target": "T3, syn-F/SBPase", "assay": "Malachite Green phosphate release, inhibition", "conditions": "substrate fructose-1,6-bisphosphate; AMP-insensitive variant"}, "cn-TKT [6]": {"target": "T2, cn-TKT", "assay": "alcohol dehydrogenase-coupled NADH assay, inhibition", "conditions": "1 mM dihydroxyacetone phosphate, glycylglycine pH 7.5, thiamine pyrophosphate, Mg2+"}, "syn-F/SBPase [7]": {"target": "T4, syn-F/SBPase (Synechocystis sp. PCC 6803, UniProt P73922)", "T4 construct": "gene slr2094; recombinant, codon-optimised, pET-28a(+), E. coli BL21, HisTrap purified; homotetramer", "T4 sequence (P73922 1-345)": "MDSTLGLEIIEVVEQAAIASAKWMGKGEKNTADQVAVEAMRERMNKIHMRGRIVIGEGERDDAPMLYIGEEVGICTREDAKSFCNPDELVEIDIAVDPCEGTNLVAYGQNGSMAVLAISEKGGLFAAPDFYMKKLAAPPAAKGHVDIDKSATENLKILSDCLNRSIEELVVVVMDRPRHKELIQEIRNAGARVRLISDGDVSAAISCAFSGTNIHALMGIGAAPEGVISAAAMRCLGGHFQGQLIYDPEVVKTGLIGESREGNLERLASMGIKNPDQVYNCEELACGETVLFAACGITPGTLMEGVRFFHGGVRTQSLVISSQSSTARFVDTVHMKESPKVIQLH", "assay": "Malachite Green phosphate release, Hill fit", "conditions": "50 mM Tris-HCl, 15 mM MgCl2, 10 mM DTT, 30 °C; no added metabolite"}, "cn-F/SBPase": {"target": "T5, cn-F/SBPase (Cupriavidus necator, UniProt P19912)", "T5 construct": "gene fbp3; recombinant, codon-optimised, pET-28a(+), E. coli BL21, HisTrap purified", "T5 sequence (P19912 1-364)": "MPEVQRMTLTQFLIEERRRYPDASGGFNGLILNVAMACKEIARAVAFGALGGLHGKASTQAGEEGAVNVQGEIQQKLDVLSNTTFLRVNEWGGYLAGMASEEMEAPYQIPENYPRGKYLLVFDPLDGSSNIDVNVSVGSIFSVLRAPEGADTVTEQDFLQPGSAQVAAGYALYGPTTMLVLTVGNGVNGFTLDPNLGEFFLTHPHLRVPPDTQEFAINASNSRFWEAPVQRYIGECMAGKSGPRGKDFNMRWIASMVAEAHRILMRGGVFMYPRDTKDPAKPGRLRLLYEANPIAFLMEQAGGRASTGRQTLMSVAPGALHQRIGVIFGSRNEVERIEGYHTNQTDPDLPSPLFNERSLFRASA", "assay": "Malachite Green phosphate release, Hill fit", "conditions": "50 mM Tris-HCl, 15 mM MgCl2, 10 mM DTT, 30 °C; no added metabolite"}}}
{"compound": "Nc1ncnc2c1ncn2[C@@H]1O[C@H](COP(=O)(O)O)[C@@H](O)[C@H]1O", "note": "[AMP]", "values": [{"measurement": "alcohol dehydrogenase-coupled NADH assay, inhibition", "setting": "syn-TKT [1]", "value": "AMP and dihydroxyacetone phosphate, which specifically reduced the activity of syn-TKT and cn-TKT, respectively"}]}
{"compound": "O=P(O)(O)OC[C@H]1OC(O)[C@H](O)[C@@H]1O", "note": "(stereo partly drawn) [D-ribose-5-phosphate]", "values": [{"measurement": "KM", "setting": "syn-TKT [2]", "value": "conversion of D-ribose-5-phosphate and L-erythrulose to sedoheptulose-7-phosphate and glycolaldehyde was measured"}, {"measurement": "KM", "setting": "cn-TKT [3]", "value": "conversion of D-ribose-5-phosphate and L-erythrulose to sedoheptulose-7-phosphate and glycolaldehyde was measured"}]}
{"compound": "O=C[C@H](O)COP(=O)(O)O", "note": "[GAP, glyceraldehyde-3-phosphate]", "values": [{"measurement": "Malachite Green phosphate release, activation", "setting": "syn-F/SBPase [4]", "value": "This mutant lost AMP sensitivity but retained sensitivity to both GAP activation and NADPH inhibition"}]}
{"compound": "NC(=O)C1=CN([C@@H]2O[C@H](COP(=O)(O)OP(=O)(O)OC[C@H]3O[C@@H](n4cnc5c(N)ncnc54)[C@H](OP(=O)(O)O)[C@@H]3O)[C@@H](O)[C@H]2O)C=CC1", "note": "[NADPH]", "values": [{"measurement": "Malachite Green phosphate release, inhibition", "setting": "syn-F/SBPase [5]", "value": "This mutant lost AMP sensitivity but retained sensitivity to both GAP activation and NADPH inhibition"}]}
{"compound": "O=C(CO)COP(=O)(O)O", "note": "[dihydroxyacetone phosphate]", "values": [{"measurement": "alcohol dehydrogenase-coupled NADH assay, inhibition", "setting": "cn-TKT [6]", "value": "AMP and dihydroxyacetone phosphate, which specifically reduced the activity of syn-TKT and cn-TKT, respectively"}]}
{"compound": "O=P(O)(O)OC[C@H]1OC(O)(COP(=O)(O)O)[C@@H](O)[C@@H]1O", "note": "(some centres unmarked) [fructose-1,6-bisphosphate]", "values": [{"measurement": "KM", "setting": "syn-F/SBPase [7]", "value": "activity on the substrate fructose-1,6-bisphosphate was screened using Malachite Green (MG) detection"}, {"measurement": "KM", "setting": "cn-F/SBPase", "value": "Initial rates of syn-F/SBPase and cn-F/SBPase were measured at different substrate concentrations"}]}
